The test system of one assay is MV4-11 cells. The experiment in a line: MV4-11 6-day cell growth CTG (CellTiter-Glo) assay. Format: cell-based. Conditions: 6 days, read-out: (c) MLL/WDR5 cell proliferation assay//MLL/WDR5 proliferation MV4:11 Qualified AC50. A digest of the protocol: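 IC50 comes from a dose-response fit of % inhibition relative to DMSO controls, with viable cells measured by CellTiter-Glo luminescence. Compounds were tested over 12 points (1:3, starting at 50 μM final) on MV4-11 cells plated at 300/well and grown 6 days.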
(ATP-based viability assays read luminescence as a measure of living cells.)

Assay [1] deals with wild type MLL1 four-member complex (MLL1-4C) (Homo sapiens, UniProt P61964). The experiment in a line: MLL1 LC-MS assay (SAH production). Format: biochemical. Conditions: read-out: (b) MLL LCMS Peptide Val.v.1 Qualified AC50. The gist of the method: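 SAH formation, measured by LC-MS/MS after a TFA quench containing d4-SAH, was normalised to no-compound and no-enzyme controls and fitted to a dose-response curve for IC50. Reactions ran 120 min at rt (pH 8.0 Tris buffer) with final 30 nM MLL1 four-member complex, 2.5 μM SAM and 10 μM biotinylated H3[1-21] peptide, after a 20-min enzyme/SAM-compound preincubation.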

Another assay addresses WDR5 (Homo sapiens, UniProt P61964). The experiment in a line: WDR5 HTRF binding assay. Conditions: read-out: (a) WDR5 HTRF Pep Val v.1[Inhibitor/IC50]Qualified AC50. The gist of the method:
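In this HTRF displacement format, biotinylated MLL1 WIN peptide (3762-3773, 20 nM) binds WDR5 (6 nM) in 25 mM Hepes pH 7.5 with 100 mM NaCl, 2 mM DTT and 0.1% BSA for 20 min at rt. Detection used streptavidin-APC/anti-His-Eu for 1 hr. IC50 came from dose-response fits of normalized signal; 15 nM biotin-PEG-His peptide served as counter assay.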
On the technique in general: In TR-FRET formats the signal depends on donor and acceptor labels being close together.

Like-named read-outs stand apart in the source and are kept apart here.

In the case of `CNc1nccn1Cc1cc(CN2CC(F)C2)c2c(c1)C(=O)N([C@@H](C)c1cnc(F)c(OC)c1)CC2` [Example 43, (S)-2-(1-(6-fluoro-5-methoxypyridin-3-yl)ethyl)-5-((3-fluoroazetidin-1-yl)methyl)-7-((2-(methylamino)-1H-imidazol-1-yl)methyl)-3,4-dihydroisoquinolin-1(2H)-one], the AC50 with MV4-11 cells (Homo sapiens, MV4-11, 144 h) is 10 to 1000 nM; in assay [1], 10 to 1000 nM. Moreover, the IC50 at WDR5 was in the range of 10 to 1000 nM.
Regarding `CNc1nccn1Cc1cc2c(c(-c3cn(C)nc3C(F)F)c1)CCN(Cc1ccc(F)c(OC)c1)C2=O` [Example 66, 5-(3-(difluoromethyl)-1-methyl-1H-pyrazol-4-yl)-2-(4-fluoro-3-methoxybenzyl)-7-((2-(methylamino)-1H-imidazol-1-yl)methyl)-3,4-dihydroisoquinolin-1(2H)-one], the AC50 is 10 to 1000 nM in the assay on MV4-11 cells (Homo sapiens, MV4-11, 144 h) and 10 to 1000 nM in assay [1]. In addition, the IC50 on WDR5 was 10 to 1000 nM.
With `CCOc1cc(C(C)N2CCc3c(cc(CCN(C)CC)cc3-c3cc(F)ncc3C)C2=O)ncc1C#N` (stereo not drawn) [Example 143, 4-ethoxy-6-(1-(7-(2-(ethyl(methyl)amino)ethyl)-5-(2-fluoro-5-methylpyridin-4-yl)-1-oxo-3,4-dihydroisoquinolin-2(1H)-yl)ethyl)nicotinonitrile], the AC50 in the assay on MV4-11 cells (Homo sapiens, MV4-11, 144 h) is 10 to 1000 nM; in assay [1], 10 to 1000 nM. Besides, on WDR5, the IC50 was in the range of 10 to 1000 nM.
Regarding `CCOc1cc(C(C)N2CCc3c(cc(CCN(C)CC)cc3-c3cn(C)nc3C(F)(F)F)C2=O)ncc1C#N` (stereo not drawn) [Example 148, 4-ethoxy-6-(1-(7-(2-(ethyl(methyl)amino)ethyl)-5-(1-methyl-3-(trifluoromethyl)-1H-pyrazol-4-yl)-1-oxo-3,4-dihydroisoquinolin-2(1H)-yl)ethyl)nicotinonitrile], the AC50 lay within 10 to 1000 nM in the assay with MV4-11 cells (Homo sapiens, MV4-11, 144 h) and 10 to 1000 nM in assay [1]. For the same compound, the IC50 at WDR5 lay in the range of 10 to 1000 nM.
For `CNc1nccn1Cc1cc(-c2cc(C(C)O)cnc2Cl)c2ccn(Cc3ccc(F)c(OC)c3)c(=O)c2c1` (stereo not drawn) [Example 106, 5-(2-chloro-5-(1-hydroxyethyl)pyridin-3-yl)-2-(4-fluoro-3-methoxybenzyl)-7-((2-(methylamino)-1H-imidazol-1-yl)methyl)isoquinolin-1(2H)-one], the AC50 was in the range of 10 to 1000 nM in the assay on MV4-11 cells (Homo sapiens, MV4-11, 144 h) and 10 to 1000 nM in assay [1]. For the same compound, the IC50 at WDR5 was 10 to 1000 nM.
Take `CCOc1cc([C@H](C)N2CCc3c(cc(CCN4C[C@@H](O)[C@H]4C)cc3-c3cc(C)cnc3C)C2=O)ncc1C#N` [Example 220]: the AC50 in the assay on MV4-11 cells (Homo sapiens, MV4-11, 144 h) fell in the range of 10 to 1000 nM; in assay [1], 10 to 1000 nM. The IC50 on WDR5 was below 10 nM.
As for `CCOc1cc(CN2CCc3c(cc(CCN(C)CC)cc3-c3cc(C)cnc3C)C2=O)ncc1C#N` [Example 140, 6-((5-(2,5-dimethylpyridin-3-yl)-7-(2-(ethyl(methyl)amino)ethyl)-1-oxo-3,4-dihydroisoquinolin-2(1H)-yl)methyl)-4-ethoxynicotinonitrile], the AC50 in the assay on MV4-11 cells (Homo sapiens, MV4-11, 144 h) was in the range of 10 to 1000 nM; in assay [1] it was 10 to 1000 nM. Further, on WDR5, the IC50 was below 10 nM.
As to `CCOc1cc([C@H](C)N2CCc3c(cc(CCN4C[C@@H](O)[C@H]4C)cc3-c3cn(C)nc3C(F)F)C2=O)ncc1C#N` [Example 213, 6-((S)-1-(5-(3-(difluoromethyl)-1-methyl-1H-pyrazol-4-yl)-7-(2-((2R,3R)-3-hydroxy-2-methylazetidin-1-yl)ethyl)-1-oxo-3,4-dihydroisoquinolin-2(1H)-yl)ethyl)-4-ethoxynicotinonitrile], the AC50 with MV4-11 cells (Homo sapiens, MV4-11, 144 h) is 10 to 1000 nM; in assay [1], 10 to 1000 nM. The IC50 on WDR5 was below 10 nM.
With `CNc1nccn1Cc1cc(CN(C)CC(F)F)c2c(c1)C(=O)N([C@@H](C)c1cc(OC)c(F)cn1)CC2` [Example 35, (S)-5-(((2,2-difluoroethyl)(methyl)amino)methyl)-2-(1-(5-fluoro-4-methoxypyridin-2-yl)ethyl)-7-((2-(methylamino)-1H-imidazol-1-yl)methyl)-3,4-dihydroisoquinolin-1(2H)-one], the AC50 in the assay with MV4-11 cells (Homo sapiens, MV4-11, 144 h) fell in the range of 10 to 1000 nM; in assay [1], 10 to 1000 nM. Also, at WDR5, the IC50 lay within 10 to 1000 nM.
On to `CCOc1cc(CN2CCc3c(cc(CCN(C)CC)cc3-c3cn(C)c(=O)cc3C)C2=O)ncc1C#N` [Example 135, 6-((5-(1,4-dimethyl-6-oxo-1,6-dihydropyridin-3-yl)-7-(2-(ethyl(methyl)amino)ethyl)-1-oxo-3,4-dihydroisoquinolin-2(1H)-yl)methyl)-4-ethoxynicotinonitrile], for which the AC50 with MV4-11 cells (Homo sapiens, MV4-11, 144 h) lay within 10 to 1000 nM; in assay [1], 10 to 1000 nM. Also, on WDR5, the IC50 was below 10 nM.
As to `CCOc1cc([C@H](C)N2CCc3c(cc(CCN(C)CC)cc3-c3cc(OC)ncc3C)C2=O)ncc1C#N` [Example 188, (S)-4-ethoxy-6-(1-(7-(2-(ethyl(methyl)amino)ethyl)-5-(2-methoxy-5-methylpyridin-4-yl)-1-oxo-3,4-dihydroisoquinolin-2(1H)-yl)ethyl)nicotinonitrile], the AC50 in the assay with MV4-11 cells (Homo sapiens, MV4-11, 144 h) lay in the range of 10 to 1000 nM; in assay [1] it was 10 to 1000 nM. The IC50 on WDR5 is below 10 nM.
Regarding `CCOc1cc([C@H](C)N2CCc3c(cc(CCN(C)CC)cc3-c3cn4ccnc4cc3C)C2=O)ncc1C#N` [Example 190, (S)-4-ethoxy-6-(1-(7-(2-(ethyl(methyl)amino)ethyl)-5-(7-methylimidazo[1,2-a]pyridin-6-yl)-1-oxo-3,4-dihydroisoquinolin-2(1H)-yl)ethyl)nicotinonitrile], the AC50 in the assay on MV4-11 cells (Homo sapiens, MV4-11, 144 h) lay within 10 to 1000 nM; in assay [1], 10 to 1000 nM. Moreover, the IC50 on WDR5 was below 10 nM.
`CCOc1cc([C@H](C)N2CCc3c(cc(CCN(C)CCF)cc3-c3ccc(F)nc3C)C2=O)ncc1C#N` [Example 247]: the AC50 with MV4-11 cells (Homo sapiens, MV4-11, 144 h) is 10 to 1000 nM; in assay [1], 10 to 1000 nM. In addition, the IC50 on WDR5 was in the range of 10 to 1000 nM.
With `CCOc1cc([C@H](C)N2CCc3c(cc(CCN(C)CC)cc3-c3cn(C)c(=O)cc3CC)C2=O)ncc1C#N` [Example 193, (S)-4-ethoxy-6-(1-(7-(2-(ethyl(methyl)amino)ethyl)-5-(4-ethyl-1-methyl-6-oxo-1,6-dihydropyridin-3-yl)-1-oxo-3,4-dihydroisoquinolin-2(1H)-yl)ethyl)nicotinonitrile], the AC50 lay within 10 to 1000 nM with MV4-11 cells (Homo sapiens, MV4-11, 144 h) and 10 to 1000 nM in assay [1]. Also, at WDR5, the IC50 is below 10 nM.
On to `CCOc1cc([C@H](C)N2CCc3c(cc(Cn4ccnc4C)cc3-c3cn(C)nc3C)C2=O)ncc1C(N)=O` (single isomer, unassigned) [Example 268], for which the AC50 in the assay on MV4-11 cells (Homo sapiens, MV4-11, 144 h) lay within 10 to 1000 nM; in assay [1] it was 10 to 1000 nM. For the same compound, on WDR5, the IC50 was below 10 nM.
With `CCOc1cc([C@H](C)N2CCc3c(cc(CCN4C[C@@H](O)[C@H]4C)cc3-c3ccc(F)nc3C)C2=O)ncc1C#N` [Example 217], the AC50 in the assay on MV4-11 cells (Homo sapiens, MV4-11, 144 h) was in the range of 10 to 1000 nM; in assay [1] it was 10 to 1000 nM. The IC50 on WDR5 was below 10 nM.
Turning to `CNc1nccn1Cc1cc2c(c(-c3cc([C@@H](C)O)cnc3Cl)c1)CCN(Cc1ccc(F)c(OC)c1)C2=O` (single isomer, unassigned) [Example 75], the AC50 in the assay with MV4-11 cells (Homo sapiens, MV4-11, 144 h) was 10 to 1000 nM; in assay [1], 10 to 1000 nM. Further, the IC50 at WDR5 is below 10 nM.
With `CCOc1cc([C@H](C)N2CCc3c(CN(C)C4COC4)cc(Cn4ccnc4NC)cc3C2=O)ncc1F` [Example 10, (S)-2-(1-(4-ethoxy-5-fluoropyridin-2-yl)ethyl)-5-((methyl(oxetan-3-yl)amino)methyl)-7-((2-(methylamino)-1H-imidazol-1-yl)methyl)-3,4-dihydroisoquinolin-1(2H)-one], the AC50 in the assay on MV4-11 cells (Homo sapiens, MV4-11, 144 h) lay within 10 to 1000 nM; in assay [1], 10 to 1000 nM. Moreover, the IC50 at WDR5 was below 10 nM.
Regarding `CCOc1cc(CN2CCc3c(CN(C)C)cc(Cn4ccnc4NC)cc3C2=O)cnc1C#N` [Example 24, 5-((5-((dimethylamino)methyl)-7-((2-(methylamino)-1H-imidazol-1-yl)methyl)-1-oxo-3,4-dihydroisoquinolin-2(1H)-yl)methyl)-3-ethoxypicolinonitrile], the AC50 was in the range of 10 to 1000 nM in the assay on MV4-11 cells (Homo sapiens, MV4-11, 144 h) and 10 to 1000 nM in assay [1]. The IC50 at WDR5 lay in the range of 10 to 1000 nM.
For the compound `CCOc1cc(C(C)N2CCc3c(cc(Cn4ccnc4C)cc3-c3cn(C)nc3C)C2=O)ncc1C#N` (racemic) [Example 262, 6-(1-(5-(1,3-dimethyl-1H-pyrazol-4-yl)-7-((2-methyl-1H-imidazol-1-yl)methyl)-1-oxo-3,4-dihydroisoquinolin-2(1H)-yl)ethyl)-4-ethoxynicotinonitrile], the values for the AC50 (with MV4-11 cells; in assay [1]) were below 10 nM and 10 to 1000 nM, respectively. For the same compound, the IC50 on WDR5 was below 10 nM.
For the compound `CCOc1cc([C@H](C)N2CCc3c(cc(CCN(C)CC)cc3-c3cn(CC)nc3C(F)F)C2=O)ncc1C#N` [Example 165, (S)-6-(1-(5-(3-(difluoromethyl)-1-ethyl-1H-pyrazol-4-yl)-7-(2-(ethyl(methyl)amino)ethyl)-1-oxo-3,4-dihydroisoquinolin-2(1H)-yl)ethyl)-4-ethoxynicotinonitrile], the AC50 in the assay with MV4-11 cells (Homo sapiens, MV4-11, 144 h) was in the range of 10 to 1000 nM; in assay [1], 10 to 1000 nM. The IC50 at WDR5 is below 10 nM.

The values are drawn from patent publication US20220289732A1, “HETEROCYCLIC WDR5 INHIBITORS AS ANTI-CANCER COMPOUNDS” (NOVARTIS AG, priority 2019, published 2022).
